Assay [1] deals with Human alphaherpesvirus 2. The experiment in a line: Antiviral activity against herpes simplex virus-2. In kind it is functional, organism-based.
The test system of assay [2] is Human alphaherpesvirus 1. The experiment in a line: Antiviral activity against herpes simplex virus-1. In kind it is functional, organism-based.
Assay [3] concerns HL-60. The experiment in a line: In vitro antitumor activity against HL60 (Human leukemia) cells. In kind it is functional, cell-based.
In assay [4] the test system is L1210. The experiment in a line: In vitro antitumor activity against L1210 (murine leukemia) cells. In kind it is functional, cell-based. Particulars: Mus musculus.

The structures appear in SMILES notation.

The text below walks through data of ChEMBL document CHEMBL1159161, “Synthesis and biological activities of truncated acridone: Structure-activity relationship studies of cytotoxic 5-hydroxy-4-quinolone” (Bioorg Med Chem Lett, 1997).

The IC50 is the point on the concentration scale where inhibition reaches its midpoint. A higher IC50 goes with a need for much substance. Turning to `COc1cc2nccc(O)c2c(O)c1OC`, the IC50 in assay [1] was > 100 µM; in assay [2], > 100 µM; in assay [3] it was > 30 µM; in assay [4], > 40 µM.

For `COc1cc2c(c(OC)c1OC)c(=O)ccn2C`, the IC50 in assay [1] is > 100 µM; in assay [2], > 100 µM; in assay [3] it was > 30 µM; in assay [4] it was > 40 µM.

Consider `Cc1ccc(O)c2c(O)ccnc12`, for which the IC50 in assay [1] was > 100 µM; in assay [2], 27.1 µM; in assay [3], > 30 µM; in assay [4], > 40 µM.

Turning to `COc1ccc(C)c2nccc(O)c12`, the IC50 in assay [1] is > 100 µM; in assay [2], > 100 µM; in assay [3] it was > 30 µM; in assay [4], > 40 µM.

`COc1ccc(O)c2c(=O)ccn(C)c12`: the IC50 in assay [1] is > 100 µM; in assay [2], > 100 µM; in assay [3], > 30 µM; in assay [4], > 40 µM.

On to `COc1cc(OC)c2c(=O)cc[nH]c2c1`, for which the values for the IC50 in assay [3] and in assay [4] were > 30 µM and > 40 µM, respectively.

For the compound `Nc1nc2c(ncn2COCCO)c(=O)[nH]1` [ACYCLOVIR], the IC50 is 2.1 µM in assay [1] and 0.2 µM in assay [2].

With `COc1cc2c(=O)ccn(C)c2cc1OC`, the IC50 in assay [1] is > 100 µM; in assay [2] it was > 100 µM; in assay [3] it was > 30 µM; in assay [4], > 40 µM.

With `COc1cc2c(O)ccnc2cc1O`, the IC50 in assay [1] was > 100 µM; in assay [2] it was > 100 µM; in assay [3], > 30 µM; in assay [4], > 40 µM.

In the case of `COc1cc(C(F)(F)F)c2c(O)ccnc2c1`, the IC50 was 29.4 µM in assay [1], 29.4 µM in assay [2], > 30 µM in assay [3] and > 40 µM in assay [4].

Take `Oc1cccc2nccc(O)c12`: the IC50 in assay [1] is 83 µM; in assay [2], 54 µM; in assay [3] it was > 30 µM; in assay [4], > 40 µM.

For `COc1c(OC)c(OC)c2c(c1O)c(=O)c1ccc(O)c(OC)c1n2C` [GLYFOLINE], the IC50 in assay [3] was determined as 1.4 µM; in assay [4], 26.5 µM.

As for `COc1cc2nccc(O)c2c(OC)c1OC`, the IC50 in assay [1] was > 100 µM; in assay [2], > 100 µM; in assay [3], > 30 µM; in assay [4], > 40 µM.

In the case of `COc1cc(C(F)(F)F)cc2nccc(O)c12`, the IC50 in assay [1] was > 100 µM; in assay [2] it was > 100 µM; in assay [3], > 30 µM; in assay [4], > 40 µM.

`COc1cc(O)c2c(O)ccnc2c1`: the IC50 in assay [3] was > 30 µM; in assay [4], > 40 µM.

Turning to `Oc1ccnc2cc(C(F)(F)F)cc(O)c12`, the figures for the IC50 in assay [3] and in assay [4] were > 30 µM and > 40 µM, respectively.

Take `COc1ccc(OC)c2c(O)ccnc12`: the IC50 in assay [1] is > 100 µM; in assay [2], > 100 µM; in assay [3], > 30 µM; in assay [4], > 40 µM.

On to `COc1ccc(O)c2c(O)ccnc12`, for which the values for the IC50 in assay [1], in assay [2] and in assay [3] were > 100 µM, 82.6 µM and 17.7 µM, respectively.

`COc1ccc(Cl)c2nccc(O)c12`: the IC50 is > 100 µM in assay [1], > 100 µM in assay [2], > 30 µM in assay [3] and > 40 µM in assay [4].

Turning to `COc1ccc2c(O)ccnc2c1`, the IC50 in assay [1] is > 100 µM; in assay [2] it was > 100 µM; in assay [3] it was > 30 µM; in assay [4], > 40 µM.

As to `COc1cc(OC)c2c(=O)ccn(C)c2c1`, the IC50 in assay [1] was > 100 µM; in assay [2] it was > 100 µM; in assay [3] it was > 30 µM; in assay [4] it was > 40 µM.

For `COc1cc2nccc(O)c2cc1OC`, the half-maximal inhibitory concentration (IC50) in assay [1] was > 100 µM; in assay [2] it was > 100 µM; in assay [3], > 30 µM; in assay [4], > 40 µM.

As to `COc1cc2c(c(O)c1OC)c(=O)ccn2C`, the IC50 in assay [1] is > 100 µM; in assay [2], > 100 µM; in assay [3] it was > 30 µM; in assay [4] it was > 40 µM.

Consider `Nc1ccn([C@@H]2O[C@H](CO)[C@@H](O)[C@@H]2O)c(=O)n1` [CYTARABINE], for which the IC50 in assay [1] came out at 2 µM; in assay [2], 0.3 µM.
